The values below are quoted from earlier work in US20160279133A1 (Farmalider, S.A., priority 2015, published 2016).

Where a name gives a salt, the structure may show the parent alone.

Data set [1] deals with male sexual dysfunction. The settings on record: administered orally.

Regarding `CCCc1nn(C)c2c(=O)[nH]c(-c3cc(S(=O)(=O)N4CCN(C)CC4)ccc3OCC)nc12` [Sildenafil citrate], the solubility in water result is listed as “relatively insoluble”.

Take `CCCc1nn(C)c2c(=O)[nH]c(-c3cc(S(=O)(=O)N4CCN(C)CC4)ccc3OCC)nc12` [Sildenafil, 5-[2-ethoxy-5-(4-methylpiperazin-1-yl-sulfonyl)phenyl]-1-methyl-3-n-propyl-1,6-dihydro-7H-pyrazolo[4,3-d]pyrimidin-7-one]: in data set [1], the “efficacy in the treatment of male sexual dysfunction” value was “effective treatment”.
